Reference: ChEMBL document CHEMBL4422691, “Identification of C-6 as a New Site for Linker Conjugation to the Taccalonolide Microtubule Stabilizers” (J Nat Prod, 2019)
Activity calls are given as the source filed them. The calls are words filed in the database; no cut-off is given here.

Columns and labels:
Tubulin (Sus scrofa) [1] = target: T1, Tubulin (Sus scrofa) (UniProt P02554+P02550); assay: Induction of porcine tubulin polymerization measured at 1 min interval for 1 hr; assay type: protein assay
T1 sequence (P02550 whole entry, looked up): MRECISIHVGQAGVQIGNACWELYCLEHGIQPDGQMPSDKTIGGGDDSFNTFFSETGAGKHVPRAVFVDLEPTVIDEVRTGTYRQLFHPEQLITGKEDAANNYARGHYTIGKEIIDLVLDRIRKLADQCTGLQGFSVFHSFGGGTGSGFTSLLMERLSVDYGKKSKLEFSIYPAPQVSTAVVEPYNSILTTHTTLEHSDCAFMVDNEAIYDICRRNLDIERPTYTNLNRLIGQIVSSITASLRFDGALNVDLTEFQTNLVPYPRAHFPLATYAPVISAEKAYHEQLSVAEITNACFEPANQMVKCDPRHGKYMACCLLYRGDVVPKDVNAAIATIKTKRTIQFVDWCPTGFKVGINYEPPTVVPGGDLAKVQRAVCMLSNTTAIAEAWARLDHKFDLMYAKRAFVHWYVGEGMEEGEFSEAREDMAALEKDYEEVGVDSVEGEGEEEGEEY
T1 sequence (P02554 whole entry, looked up): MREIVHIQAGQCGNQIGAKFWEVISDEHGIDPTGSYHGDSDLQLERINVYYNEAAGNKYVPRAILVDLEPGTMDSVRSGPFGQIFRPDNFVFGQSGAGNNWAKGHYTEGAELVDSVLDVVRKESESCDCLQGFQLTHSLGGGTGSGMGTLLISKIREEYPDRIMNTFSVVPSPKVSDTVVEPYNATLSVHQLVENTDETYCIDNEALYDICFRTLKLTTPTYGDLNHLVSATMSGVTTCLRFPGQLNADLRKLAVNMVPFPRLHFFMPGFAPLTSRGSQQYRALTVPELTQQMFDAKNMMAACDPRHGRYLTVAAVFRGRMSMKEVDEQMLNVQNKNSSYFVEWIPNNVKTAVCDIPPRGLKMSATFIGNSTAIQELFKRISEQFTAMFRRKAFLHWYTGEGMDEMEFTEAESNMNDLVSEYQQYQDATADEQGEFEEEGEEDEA

HeLa = assay: Antiproliferative activity against human HeLa cells after 48 hrs by sulforhodamine B assay; assay type: functional, cell-based
Tubulin (Homo sapiens) [2] = target: T2, Tubulin (Homo sapiens) (UniProt P68371+Q9H4B7+P0DPH7+P68366+Q13509+Q71U36+P04350+Q3ZCM7+P07437+P68363+Q9BQE3+Q6PEY2+Q13885+Q9BVA1+Q9BUF5); assay: Induction of microtubule stabilization in human HCC1937 cells assessed as bundling of microtubules at 5 uM after 24 hrs by immunofluorescence assay; assay type: cell-based
Tubulin (Homo sapiens) [3] = target: T2, Tubulin (Homo sapiens); assay: Induction of microtubule stabilization in human HCC1937 cells assessed as co-localization of compound with microtubule at 5 uM after 24 hrs by fluorescence assay; assay type: cell-based
[4] = Stability of the compound in aqueous solution after 24 hrs; assay type: physicochemical; details: buffer
Tubulin (Homo sapiens) [5] = target: T2, Tubulin (Homo sapiens); assay: Induction of microtubule stabilization in human HCC1937 cells at 5 uM after 6 hrs by live cell fluorescence imaging; assay type: cell-based
Tubulin (Sus scrofa) [6] = target: T1, Tubulin (Sus scrofa); assay: Induction of porcine tubulin polymerization at 5 to 10 uM measured at 1 min interval for 1 hr; assay type: protein assay

Activity (Tubulin (Sus scrofa) [1])	IC50 (HeLa)	Activity (Tubulin (Homo sapiens) [2])	Activity (Tubulin (Homo sapiens) [3])	Stability [4]	Activity (Tubulin (Homo sapiens) [5])	Activity (Tubulin (Sus scrofa) [6])	Compound
Dose-dependent effect							CC(=O)O[C@H]1[C@H]2[C@H]([C@@H]3[C@@H](O)[C@@H]4[C@H]([C@H](C)[C@@H]5O[C@@]56OC(=O)[C@@](C)(O)[C@]46C)[C@@]3(C)[C@H]1OC(C)=O)[C@@H](O)C(=O)[C@H]1C[C@@H]3O[C@@H]3[C@H](OC(C)=O)[C@]21C
	2500 nM	Active	Active	Stable	Active	Active	CC(=O)O[C@H]1[C@H]2[C@@H]([C@@H](O)[C@@H](OC(=O)CCCCn3cc(COc4ccc5c(c4)Oc4cc(O)ccc4C54OC(=O)c5ccccc54)nn3)[C@H]3C[C@@H]4O[C@@H]4[C@H](OC(C)=O)[C@]23C)[C@@H]2[C@@H](O)[C@@H]3[C@H]([C@H](C)[C@H]4O[C@]45OC(=O)[C@@](C)(O)[C@]35C)[C@@]2(C)[C@H]1OC(C)=O (some centres not stated)
